Laboratory results reported in patent publication US9200253B1, “Method of producing erythrocytes” (Anthrogenesis Corporation, priority 2007, dated 2015).

Columns and labels:
[1] = tested on: human UCB derived CD34+ cells; assay: Ex-vivo expansion of CD34+ cells in short-term serum-free, cytokine supplemented culture; format: cell-based; conditions: for CD34+ phenotype in the expanded population: control 10-30%; for total nucleated cell expansion: not impacted vs control
Protocol: The ability of pomalidomide to enhance the expansion of human UCB derived CD34^+ cells in a short-term serum-free, cytokine supplemented culture system was evaluated. CD34^+ progenitor cells were enriched from cryopreserved UCB units to >90% purity and seeded (10^4 CD34^+ cells) in 1 mL of growth medium, which consists of IMDM plus serum substitute BIT (BSA, recombinant human insulin and transferrin, 20%), in the presence of SCF (50 ng/mL), Flt-3 ligand (50 ng/mL), and IL-3 (10 ng/mL). Pomalidomide, dissolved in DMSO, was supplemented at 2.7 μg/mL. The culture was incubated at 37° C., 5% CO2 for 12 days, with fresh medium added at day 7. Pomalidomide-free cultures with or without DMSO (0.05% v/v) were used as controls.

[2] = tested on: Pomalidomide-expanded CD34+ cells; assay: Cumulative colony forming units of expanded CD34+ cells; format: cell-based, human
CD34+ cells = assay: Scaled-up CD34+ expansion in gas-permeable fluorocarbon culture bag; format: cell-based, human
Protocol: CD34^+ cells were seeded in 10^4/mL pomalidomide-supplemented medium in a flexible, gas-permeable fluorocarbon culture bag (American Fluoroseal). After 7 days of incubation, the culture was centrifuged and exchanged with fresh pomalidomide-supplemented medium at three times the initial volume. By day 12, TNC and CD34^+ expansion were 350 (range: 250-700) and 200 (range: 100-450) fold, respectively (FIG. 3). Viability was 86% (range: 80-90%) by trypan blue. A total of 20 million CD34^+ cells were harvested.

[3] = first experiment, 2.7 μg/mL, 12 days
[4] = day 12, seeded 10^4/mL, medium exchanged day 7 (FIG. 3)

## Nc1cccc2c1C(=O)N(C1CCC(=O)NC1=O)C2=O (centres unmarked) [pomalidomide, 4-(Amino)-2-(2,6-dioxo(3-piperidyl))-isoindoline-1,3-dione]
[1]; [3]
  CD38 expression on cultured cells: appeared to down-regulate CD38 expression
  CD38 negative fraction of expanded CD34+ cells: 95%
  CD34+ phenotype in the expanded population: 40-60%
[1]; first experiment, 2.7 μg/mL, 12 days, control 40%
  CD133 level on expanded CD34+ cells: 15%
[1]; first experiment, pomalidomide 2.7 μg/mL, 12 days
  total nucleated cell expansion: 200-350 fold
[1]; second, similar experiment
  CD38 expression on cultured cells: appeared to down-regulate CD38 expression
  CD38 negative fraction of expanded CD34+ cells: 97%
[1]; second, similar experiment (FIG. 2)
  CD34+ phenotype in the expanded population: 40-60%
[1]; second, similar experiment, 2.7 μg/mL, 12 days
  total nucleated cell expansion: 200-350 fold
[1]; second, similar experiment, control 32.3%
  CD133 level on expanded CD34+ cells: 11.5%
[2]; first experiment
  cumulative colony forming units relative to expanded controls: substantial improvement
[2]; second, similar experiment
  cumulative colony forming units relative to expanded controls: substantial improvement
CD34+ cells; day 12
  Viability by trypan blue: 86%
  total CD34+ cells harvested: 20 million
CD34+ cells; [4]
  CD34+ expansion: 200 (range: 100-450) fold
  TNC expansion: 350 (range: 250-700) fold
CD34+ cells; overall conclusion
  ex-vivo expansion of placental derived CD34+ progenitors: significantly enhanced
